The values that follow come from patent US20020042374A1, “METHOD OF TREATING INSULIN INSENSITIVITY AND SYNDROME X” (priority 1997, published 2002).

One data set deals with human SSTR-5 (Homo sapiens, UniProt P35346). Put plainly: Somatostatin receptor binding assay, hSSTR-5.
A further data set has as its target human SSTR-2 (Homo sapiens, UniProt P30874). In words: Somatostatin receptor binding assay, hSSTR-2.
Data set [1] has as its system fatty (fa/fa) Zucker rats. Put plainly: Insulin sensitivity study, oral glucose challenge after one week treatment. It counts as in vivo, rat. Particulars: 3 mg/kg s.c. twice daily, 7 days. The method, then: Male fatty Zucker rats (Harlan-Olac, Bicester, Oxon, U.K.), which were 15-17 weeks old, were randomly divided into two groups. The animals were house in pairs in a normal 12 hour light:12 hour darkness cycle at 20±2° C. and fed a standard laboratory rat diet (Beekay rat and mouse diet, Bantin & Kingman, Hull, Humberside, U.K.) ad libitum. For the group assigned to receive drug treatment, the rats received BIM-23268C at 3 mg/kg, by subcutaneous injection, twice a day at 10:00 AM and 5:00 PM. The other group, the control group, was treated with a subcutaneous injection of 0.lml/100 g of saline twice a day at 10:00 AM and 5:00 PM. […] On the last day of treatment, at 5:00 PM food was removed, and the rats were fasted overnight.
A method for assessing insulin sensitivity is to administer an oral glucose challenge and monitoring the secretion of insulin and disposal of glucose from the blood stream over a 240 min period (Bergman, R. N., et al., Endocrine Review 6:45-86 (1985)). […] 20 μl blood samples were taken from tail vein (Abdel-Halim, S. M., et al., Diabetes 43:281-288 (1994)) at −60 min, −30 min, 0 min, 30 min, 60 min, 90 min, 120 min, and 240 min.
The 20 μl samples were taken into 380 μl of hemolysis reagents (Sigma, Poole, Dorset, UK) containing 50 mg/liter of digitonin (Cat# D-1407) and 100 mg/liter of Maleimide (M-3766). From this, 100 μl of the hemolysed blood sample was added to 0.9 ml of Tinder reagent (Sigma Enzymatic calorimetric assay for blood glucose, Cat# 315-100, Sigma Chemical Co. Ltd, Poole, Dorset, UK). Blood glucose was determined according to vendor's recommendation at 505 nm.
Insulin was measured by the conventional radioimmunoassay method as described (Dunmore, S., & Beloff-Chain, A., J Endocrinol. 92:15-21 (1982)). Samples were assayed in triplicates with a 1:30000 dilution of an insulin antiserum (from guinea pig)raised in the laboratory (Dunmore, S. J., et al., J. Endocrinol. 137:375-381 (1993), and using ^125I-labelled bovine insulin, iodinated by the chloramine T method (Sambrook, et al., Molecular Cloning- A Laboratory Manual, Ed. 2., Cold Spring Harbor Laboratory Press, 1989). Rat insulin (2000U/0.1 ml, Novo Nordisk Laboratories, Basingstoke, Hants, U.K.) was used as a standard in the assay. The standards and samples were diluted in assay buffer containing NaH2PO4 5.7 g/L, bovine serum albumin (Sigma A4378, Sigma Chemical Co. Ltd., Poole, Dorset, UK) 5.0 g/L, NaN3 1.0 g/L buffered to pH 7.4). Antibody-bound insulin was separated on from free insulin by the addition of a second antibody (donkey anti-guinea pig Ig) coated on cellulose, Sac-Cel (IDS, Boldon, Tyne & Wear, UK). The antibody-bound insulin precipitate was separated by centrifugation. Counts bound were measured on an LKB Rackgamma solid scintillation counter.

In a further data set the target is human SSTR-1 (Homo sapiens, UniProt P30872). Put plainly: Somatostatin receptor binding assay, hSSTR-1.
Data set [2] deals with Obese (fa/fa) Zucker rats. Put plainly: Lipidemia study, plasma glycerol and triglycerides. The format is in vivo, rat. The protocol: Obese (fa/fa) Zucker rats were treated as in example 1 above. On the last day of treatment (day 6), food was removed at 5:00 p.m., and the rats were fasted overnight. At 9:00 a.m. the next day, the animals were subjected to a glucose challenge, given as 0.8 gram/kg of glucose orally. Periodic 400 μl of blood samples were taken from the tail vein (Peterson, R. G., ILAR News, 32:16-19 (1990)) 60 min. and 30 min. before and at 30, 60, 90, and 120 min. after the administration of the glucose challenge (0.8 gram/kg orally). Aprotinin (Traysylol, Bayer UK, Hayward's Health, W. Sussex, U.K.) and heparin (Sigma Chemical Co., Poole, Dorset, U.K.) were added to the blood samples to a final concentration of 400 KIU/ml and 100 units/ml, respectively. Plasma fractions were prepared from these samples by centrifugation at 4000×G in a microfuge, for the estimation of triglycerides and glycerol. Samples were then stored at −80° C. until assayed.
Plasma glycerol and triglycerides were determined using the Sigma Enzymatic (Tinder) calorimetric assay kit (Cat #337-B, Sigma Chemical Co., Poole, Dorset, U.K.) and measuring absorbance at 540 nm in a spectrophotometer.

For data set [3], the system named is fatty (fa/fa) Zucker rats. The note with it: 3 mg/kg s.c. twice daily, 6 days.
In the next data set the target is human SSTR-4 (Homo sapiens, UniProt P31391). Put plainly: Somatostatin receptor binding assay, hSSTR-4.
The target of the next data set is human SSTR-3 (Homo sapiens, UniProt P32745). Put plainly: Somatostatin receptor binding assay, hSSTR-3.
Where [4] appears, read: 3 mg/kg s.c. twice daily, 6 days, samples 30 and 60 minutes before oral glucose challenge, FIG. 1/2.
[5] abbreviates: throughout the 2-hour test period after oral glucose challenge.

Like-named read-outs stand apart in the source and are kept apart here. Positions of bridges follow the written chain, without caps; N, C: chain ends. Non-standard residues stand in square brackets, D forms with d. Residues, ends and D or L forms follow the SMILES beside them.

Chain of human SSTR-1 (P30872 whole entry): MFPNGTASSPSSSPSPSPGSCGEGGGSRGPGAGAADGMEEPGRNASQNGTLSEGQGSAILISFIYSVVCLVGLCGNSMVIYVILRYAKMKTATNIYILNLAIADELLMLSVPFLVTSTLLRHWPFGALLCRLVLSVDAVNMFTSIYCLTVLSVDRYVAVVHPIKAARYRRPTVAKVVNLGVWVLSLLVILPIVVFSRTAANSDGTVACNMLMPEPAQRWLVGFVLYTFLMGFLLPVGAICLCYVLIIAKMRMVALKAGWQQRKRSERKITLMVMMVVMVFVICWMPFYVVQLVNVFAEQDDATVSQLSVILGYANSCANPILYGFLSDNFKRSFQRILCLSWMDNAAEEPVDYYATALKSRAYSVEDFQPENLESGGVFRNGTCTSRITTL
Chain of human SSTR-2 (P30874 whole entry): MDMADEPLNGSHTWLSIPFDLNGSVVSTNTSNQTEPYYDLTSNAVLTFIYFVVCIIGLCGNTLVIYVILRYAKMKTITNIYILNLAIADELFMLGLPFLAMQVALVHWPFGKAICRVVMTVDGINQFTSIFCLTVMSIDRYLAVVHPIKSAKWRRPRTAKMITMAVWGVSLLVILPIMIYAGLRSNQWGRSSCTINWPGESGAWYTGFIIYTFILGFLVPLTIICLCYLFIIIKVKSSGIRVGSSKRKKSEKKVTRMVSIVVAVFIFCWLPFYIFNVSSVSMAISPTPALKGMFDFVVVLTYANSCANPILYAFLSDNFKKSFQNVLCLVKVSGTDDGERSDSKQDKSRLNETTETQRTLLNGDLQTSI
Chain of human SSTR-5 (P35346 whole entry): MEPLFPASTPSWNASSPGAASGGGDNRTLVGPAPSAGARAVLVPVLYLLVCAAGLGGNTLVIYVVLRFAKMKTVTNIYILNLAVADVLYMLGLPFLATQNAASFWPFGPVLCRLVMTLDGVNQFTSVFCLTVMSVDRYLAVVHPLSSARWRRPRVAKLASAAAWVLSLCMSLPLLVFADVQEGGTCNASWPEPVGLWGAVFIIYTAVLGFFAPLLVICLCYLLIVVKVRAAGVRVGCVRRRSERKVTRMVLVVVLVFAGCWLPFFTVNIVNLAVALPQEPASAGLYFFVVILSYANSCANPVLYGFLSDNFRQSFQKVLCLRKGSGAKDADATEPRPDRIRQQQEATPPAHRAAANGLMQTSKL
Chain of human SSTR-4 (P31391 whole entry): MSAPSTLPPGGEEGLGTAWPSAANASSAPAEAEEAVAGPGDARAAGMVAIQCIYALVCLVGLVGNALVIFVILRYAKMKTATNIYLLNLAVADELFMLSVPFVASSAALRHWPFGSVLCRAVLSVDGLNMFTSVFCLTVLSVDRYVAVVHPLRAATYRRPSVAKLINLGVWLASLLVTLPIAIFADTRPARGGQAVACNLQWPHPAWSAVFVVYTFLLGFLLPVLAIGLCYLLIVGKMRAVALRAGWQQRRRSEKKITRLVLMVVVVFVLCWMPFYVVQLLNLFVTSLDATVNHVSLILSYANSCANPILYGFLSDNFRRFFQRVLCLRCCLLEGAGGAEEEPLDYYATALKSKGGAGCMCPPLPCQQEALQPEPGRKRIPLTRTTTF
Chain of human SSTR-3 (P32745 whole entry): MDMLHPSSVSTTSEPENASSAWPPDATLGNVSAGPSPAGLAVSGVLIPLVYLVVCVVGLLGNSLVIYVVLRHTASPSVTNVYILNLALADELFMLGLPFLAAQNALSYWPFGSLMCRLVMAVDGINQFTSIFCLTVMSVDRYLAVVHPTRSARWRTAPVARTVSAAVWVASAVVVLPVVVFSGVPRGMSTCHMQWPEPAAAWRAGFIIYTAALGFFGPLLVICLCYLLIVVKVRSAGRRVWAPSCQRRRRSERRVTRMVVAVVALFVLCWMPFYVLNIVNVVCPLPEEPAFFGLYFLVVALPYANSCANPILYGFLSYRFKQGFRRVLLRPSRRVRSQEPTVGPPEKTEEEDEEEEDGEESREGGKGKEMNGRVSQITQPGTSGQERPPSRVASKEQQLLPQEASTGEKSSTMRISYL

As to `C[C@@H](O)[C@@H]1NC(=O)[C@H](CCCCN)NC(=O)[C@@H](Cc2c[nH]c3ccccc23)NC(=O)[C@H](Cc2ccccc2)NC(=O)[C@H](Cc2ccccc2)NC(=O)[C@@H](N)CSSC[C@@H](C(N)=O)NC(=O)[C@H](Cc2ccccc2)NC1=O` [BIM-23268, H-Cys-Phe-Phe-D-Trp-Lys-Thr-Phe-Cys-NH2] (H-CFF[dW]KTFC-NH2; disulfide 1-8), the results for the inhibitory constant (Ki) at human SSTR-5 (read-out: Ki hSSTR-5), on human SSTR-2 (read-out: Ki hSSTR-2) and on human SSTR-1 (read-out: Ki hSSTR-1) were 0.42 nM, 15.1 nM and 1230 nM, respectively. Moreover, the insulin-sensitivity entry in data set [1] is recorded as “produced an improvement in insulin-sensitivity”. Further, in data set [1] (oral glucose 0.8 g/kg after overnight fast), the glucose tolerance result is given as “did not show an impairment in glucose tolerance”. In addition, the “glucose stimulated insulin secretion to the glucose challenge” value in data set [1] (oral glucose 0.8 g/kg after overnight fast, vs saline group) is “significant suppression”. Moreover, the “plasma glucose profile versus untreated group” value in data set [1] (oral glucose 0.8 g/kg, up to 240 min) was “not significantly different”. Besides, the plasma glycerol entry in data set [2] (setting [4]) is on record as “significantly lowered”; in data set [2] (setting [5]) it was “significantly lower”. Besides, the results for the plasma triglycerides entry in data set [2] (setting [4]) and in data set [2] (setting [5]) were “significantly lowered” and “significantly lower”, respectively. Moreover, in data set [2] (6-day treatment, 3 mg/kg s.c. twice daily), the hypertriglyceridemia result was “effective in reducing hypertriglyceridemia”. The “amount of food consumed over the entire treatment period versus control” value in data set [3] was “no difference”. For the same molecule, in data set [3], the “body weight gain versus control” value is “lower”. Further, the “toxic effect, appearance of treated group” value in data set [3] was “appeared healthy”. Moreover, the “group mean weight after six days” value in data set [3] (413.6 at start of trial, control 414.09 to 418.89) was found to be 413.6. The same molecule returned an average food consumption in data set [3] (control 26.0) of 25.9 g/rat/day.

Turning to `NCCCC[C@@H]1NC(=O)[C@@H](Cc2c[nH]c3ccccc23)NC(=O)[C@H](Cc2ccccc2)NC(=O)[C@H](Cc2ccccc2)NC(=O)[C@@H](N)CSSC[C@@H](C(N)=O)NC(=O)[C@H](Cc2ccccc2)NC(=O)[C@H](CO)NC1=O` [BIM-23284, H-Cys-Phe-Phe-D-Trp-Lys-Ser-Phe-Cys-NH2] (H-CFF[dW]KSFC-NH2; disulfide 1-8), the Ki at human SSTR-5 turned out to be 0.85 nM; on human SSTR-2, 19.3 nM; on human SSTR-4, 58.6 nM; at human SSTR-1 it was 27.9 nM; at human SSTR-3, 35.6 nM.

For `C[C@@H](O)[C@@H]1NC(=O)[C@H](CCCCN)NC(=O)[C@@H](Cc2c[nH]c3ccccc23)NC(=O)[C@H](Cc2ccc(O)cc2)NC(=O)[C@H](Cc2ccccc2)NC(=O)[C@@H](N)CSSC[C@@H](C(N)=O)NC(=O)[C@H](Cc2ccccc2)NC1=O` [BIM-23295, H-Cys-Phe-Tyr-D-Trp-Lys-Thr-Phe-Cys-NH2] (H-CFY[dW]KTFC-NH2; disulfide 1-8), the Ki was found to be 0.34 nM at human SSTR-5; 6.19 nM on human SSTR-2; 3.4 nM at human SSTR-4; 86.9 nM on human SSTR-1; 9.7 nM on human SSTR-3.

Regarding `C[C@@H](O)[C@@H]1NC(=O)[C@H](CCCCN)NC(=O)[C@@H](Cc2c[nH]c3ccccc23)NC(=O)[C@H](Cc2ccc(O)c(I)c2)NC(=O)[C@H](Cc2ccccc2)NC(=O)[C@@H](N)CSSC[C@@H](C(N)=O)NC(=O)[C@H](Cc2ccccc2)NC1=O` [BIM-23313, H-Cys-Phe-Tyr(I)-D-Trp-Lys-Thr-Phe-Cys-NH2], the Ki at human SSTR-1 (membranes of transfected CHO-K1 cells, [125I-Tyr11]somatostatin-14 0.05 nM, read-out: Ki hSSTR-1) stood at 15.1 nM.
